Measurements: patent US20260306502A1, “MITOCHONDRIAL UNCOUPLERS FOR TREATMENT OF METABOLIC DISEASES AND CANCER” (Mito Biopharma, LLC, priority 2022, published 2026)

How the values were obtained:
[1] = system: TGF-β signaling pathway; assay: TGF-β signaling pathway activation (Smad2/3 phosphorylation) in T cells (Jurkat, primary mouse CD8+), immunoblotting; assay type: cell-based, human Jurkat cells and mouse primary T-cells; settings: Jurkat and mouse primary T-cells, 6 hours, FIG. 19
Method: Jurkat cells (a human T-cell cancer cell line) and the primary mouse CD8+ cells (T-cells) were tested. The cells were treated with TGF-β (10 ng/ml) alone, or TGF-β (10 ng/ml) plus compound at various concentrations (e.g. 0.5, 1.0, 2.0 μM), or treated with vehicle (control), for 6 hours. The cells were then harvested, and cell lysates were subjected to immunoblotting analyses with antibodies against Smad2/3, phosphorylated Smad2/3, and GAPDH.

[2] = system: MC38 cells; assay: Anti-cancer effect in combination with a PD-1 inhibitor, MC38 cells transplanted in liver; assay type: in vivo, mouse; settings: in words
Excerpt: FIG. 20A is the experimental design (see Example B12). Briefly, C57/Bl6 mice intrahepatically transplanted with MC38 cancer cells (day 0) were subject to various treatments starting on day 7: aPD-1 or isotype, mice were either treated with PD-1 antibody or its isotype antibody (control) by intraperitoneal (IP) injection on indicated days (PD-1 antibody has a half-life of over 1 week in mice); #64 or vehicle, mice were either treated with Compound #64 or vehicle by daily gavage. FIG. 20B is a table depicting outcomes of the experiments described in FIG. 20A and Example B12. aPD-1+#64 represents mice treated with PD-1 antibody (IP) and #64 (daily gavage); aPD-1 represents mice treated with PD-1 antibody (IP) and vehicle (gavage); control, represents mice treated with isotype antibody (IP) and vehicle (gavage); n is number of mice in each group. Tumor-positive is the number of tumor-bearing mice in each group; tumor-free is the number of tumor-free mice in each group; tumor-free % is the percentage of tumor-free animals in each group. […]
The experimental design is illustrated in FIG. 20A. Mouse colon cancer cells, MC38, were transplanted in livers of immune competent B57/Bl6 mice, and the effect of the combinatory treatment was determined. […] Tumor incidence and volume were determined.

[3] = PO pharmacokinetic study, oral exposure (Example B3); assay type: in vivo; settings: for AUC at 24 h: blood, po, 10 mg/kg gavage; for oral absorption, systemic exposure: in words
Method: The blood concentration of the compound was then determined at 0 (pre-dosing), 5 min, 15 min, 30 min, 1 hr, 2 hr, 4 hr, 8 hr, 24 hr time points by LC-MS/MS analysis (See Tables 1 and 2, vide supra).

[4] = system: HFD-induced diabetic mouse model and db/db mouse model; assay: Efficacy in HFD-induced diabetic and db/db mouse models; assay type: in vivo; settings: for reducing blood glucose, blood insulin, and glycated HbA1c: 5 mg/kg once daily PO, db/db and HFD mice; for minimal effective dose: Mus musculus, both HFD and db/db models, oral daily gavage, read-out: Efficacious dosage to reduce blood glucose in mouse models, oral daily gavage
Method: For HFD induced diabetic mouse model, C57Bl6 mice (male, n=6) were induced to obese and diabetic conditions by feeding high-fat diet (HFD, 60% fat calories, Research Diet, Inc. New Brunswick, NJ) for 3-4 months. […] During the 3-week period, the mice continued feeding HFD. […] The blood glucose levels were measured after an overnight fast, plasma insulin levels were tested after 5-6 hours fast, and the glycated HbA1c levels were determined in whole blood samples.
Experiments were similarly performed with other compounds, in either high-fat diet induced diabetes and fatty liver models, or in db/db mouse model, or in both, by daily oral gavage administration with low dosages.

[5] = system: TGF-β signaling pathway; assay: TGF-β signaling pathway activation (Smad2/3 phosphorylation) in LX-2 cells, immunoblotting; assay type: cell-based, human; settings: 6 hrs, FIG. 17B
Method: Cells were then harvested, and immunoblotting analyses was performed with antibodies against p-Smad2/3 (phosphorylated Smad2/3), Smad2/3, or GAPDH, as indicated.

[6] = system: NIH3T3; assay: Cell growth inhibition assay (SRB), NIH3T3; assay type: cell-based; settings: Mus musculus, NIH3T3, 48 h
Method: Cell growth inhibition assays were performed using a protocol standardized by National Cancer Institute (NCI) for evaluating anti-cancer drugs. Various mammalian cell lines were used for the assays. Briefly, the cells were inoculated into 96 well microtiter plates. After cell inoculation, the microtiter plates were incubated for cell growth for 24 h prior to the addition of compounds. After 24 h, two plates of each cell line were fixed in situ with TCA, to represent a measurement of the cell population for each cell line at the time of compound addition (Tz). Test compounds were solubilized in dimethyl sulfoxide. At the time of test compound addition, five 10-fold or ½ log serial dilutions were made to provide a total of five test compound concentrations plus control. Aliquots of 100 μl of these different test compound dilutions were added to the appropriate microtiter wells already containing 100 μl of the medium, resulting in the required final test compound concentrations. […] The bound stain was subsequently solubilized with 10 mM trizma base, and the absorbance was read on an automated plate reader at a wavelength of 515 nm. Using the seven absorbance measurements [time zero, (Tz), control growth, (C), and test growth in the presence of a compound at the five concentration levels (Ti)], the percentage growth was calculated at each of the test compound concentrations levels.

Row | SMILES | effect on TGF-β signaling pathway activation in T cells [1] | efficacy in combinatory therapy with PD-1 antibody in treating metastatic cancer in mice [2] | AUC at 24 h [3] | oral absorption, systemic exposure [3] | reducing blood glucose, blood insulin, and glycated HbA1c [4] | minimal effective dose [4] | effect on TGF-β signaling pathway activation (Smad2/3 phosphorylation) [5] | GI50 [6]
1 | COCCOCc1cc(C(F)(F)F)cc2sc(NC(=O)c3cc(Cl)cc(CN4C[C@@H](C)O[C@@H](C)C4)c3O)nc12 [Compound 64, 5-chloro-3-((cis-2,6-dimethylmorpholino)methyl)-2-hydroxy-N-(4-((2-methoxyethoxy)methyl)-6-(trifluoromethyl)benzo[d]thiazol-2-yl)benzamide] | effectively blocks TGF-β signaling pathway activation in T cells | efficacious in combinatory therapy with PD-1 antibody | 10000 to 30000 ng·h/mL | excellent | highly efficacious | 1 to 2.5 mg/kg | blocks activation of TGF-β signaling pathway at early stages by inhibiting Smad2/3 phosphorylation | –
2 | COCCN(CCOC)Cc1cc(Cl)cc(C(=O)Nc2nc3ccc(C(F)(F)F)cc3s2)c1O [Compound 25, 3-((bis(2-methoxyethyl)amino)methyl)-5-chloro-2-hydroxy-N-(6-(trifluoromethyl)benzo[d]thiazol-2-yl)benzamide] | – | – | 10000 to 30000 ng·h/mL | excellent | highly efficacious | 2.5 mg/kg | – | > 20 µM
